{"source": "patent US11535599B2", "about": "“Benzisoxazole derivative” (Sumitomo Pharma Co., Ltd., priority 2020, dated 2022)", "key": {"[1]": {"system": "harmaline-induced essential tremor model", "experiment": "Anti-tremor effect in harmaline-induced essential tremor model", "type": "in vivo, mouse", "settings": "Examples 1, 13: 25 or 50 mg/kg, Example 14: 3.125-25 mg/kg oral; β-propranolol 10 mg/kg i.p.", "experimental": "As an animal model of essential tremor, an animal administrated with harmaline is broadly used in its evaluation test. […] The effect of the present compounds for harmaline-acute-administration-induced tremor was studied. To male Crl: CD1 mice (6-7 weeks old) (CHARLES RIVER LABORATORIES JAPAN, INC.), harmaline (30 mg/kg) was intraperitoneally administered to induce tremor. The present compound (Example 1 (25 mg/kg or 50 mg/kg), Example 13 (25 mg/kg or 50 mg/kg), or Example 14 (3.125 mg/kg, 6.25 mg/kg, 12.5 mg/kg, or 25 mg/kg)) was orally administered to the mouse one hour before the administration of harmaline. And, saline or β-propranolol (10 mg/kg) which is a positive control compound was intraperitoneally administered to the mouse 20 minutes before the administration of harmaline. 35 minutes before the administration of harmaline, the mouse was put into a measurement cage (an acrylic cylinder set in a horizontal direction, φ 65 mm, length 145 mm), one cage to one mouse, said measurement cage was in a soundproof box of a startle response instrument (O'hara & Co., Ltd., Tokyo). The trembling that the mouse gave were recorded over time as tremor data. The animal was put into cage, and the data were recorded for 20 minutes just before (PRE) and just after (POST) the administration of harmaline. The time-series signal data were analyzed about frequency with an analysis software, VitalTracer and BIMUTAS II-A (both, Kissei Comtech Co., Ltd., Matsumoto-shi). At 12-15 Hz or 12-18 Hz as a frequency which increases with tremor, the spectrum amounts were extracted, and the tremor intensity T of each subject was calculated according to the following formula. T=POST/PRE"}, "[2]": {"molecular_target": "human Cav3.1 (Homo sapiens (Human), UniProt O43497)", "experiment": "T-type calcium channel inhibitory activity, whole-cell patch-clamp with HEK293 cell", "type": "cell-based", "experimental": "(§1) The inhibitory activity of the present compounds for T-type calcium channel was measured by whole-cell patch-clamp method with HEK293 cell (vendor of HEK 293 cell: ATCC, Manassas, Va., USA, builder of expressing cell: ChanTest Corporation., Cleveland, Ohio, USA), in which human Cav3.1, human Cav3.2, or human Cav3.3 is expressed. The culture medium used for HEK293 cell was prepared by adding fetal bovine serum (10%), sodium penicillin G (100 U/mL), streptomycin sulfate (100 μg/mL), and G418 (500 μg/mL) to a mixture medium of Dulbecco's modified Eagle's medium/Ham's F-12 medium. The whole-cell current was evaluated with IonWorks Barracuda system and Population Patch Clamp (both are provided by Molecular Device Corporation, Union City, Calif., USA). The extracellular recording solution used during the recording was Hanks' balanced salt solution. The internal recording solution used herein was 50 mmol/L CsCl, 90 mmol/L CsF, 5 mmol/L MgCl2, 1 mmol/L glycol ether diamine tetraacetic acid (EGTA), and 10 mmol/L 4-(2-hydroxyethyl)piperazine-1-ethanesulfonic acid (HEPES (pH 7.2). The holding voltage was held at −90 mV, then changed to −65 mV. 60 seconds later, −20 mV pulse was added thereto for 200 millisecond to activate the channel on plasma membrane and generate calcium current. The calcium current was recorded with an amplifier of IonWorks Barracuda system, and analyzed with a program of the system (Version 2.0.2). The record of the calcium current was obtained twice, before and after the addition of the compound. In the measurement after adding the compound, the cells were exposed to the recording solution containing the compound for more than 5 minutes and then the current was measured. In the analyses, the ratio of current readout after the compound addition per current readout before the compound addition was calculated, the calculated value was subtracted from one, and the obtained value was converted to percentage. […] The value obtained from each compound was canonicalized based on the two ends of values to obtain each inhibitory rate. The positive control compound used herein was TTA-A2 which is known as T-type calcium channel inhibitor. IC50 value was calculated with Hill equation.\n(§2) Each inhibitory rate (%) against T-type calcium channel at the evaluation concentration of the present compound (600 μmol/L) is shown in Table 12, in which the parenthesized values are IC50 values (μmol/L)) calculated from the dose-reactive test."}, "[3]": {"molecular_target": "human Cav3.2 (Homo sapiens (Human), UniProt O95180)", "sequence (O95180 whole entry)": "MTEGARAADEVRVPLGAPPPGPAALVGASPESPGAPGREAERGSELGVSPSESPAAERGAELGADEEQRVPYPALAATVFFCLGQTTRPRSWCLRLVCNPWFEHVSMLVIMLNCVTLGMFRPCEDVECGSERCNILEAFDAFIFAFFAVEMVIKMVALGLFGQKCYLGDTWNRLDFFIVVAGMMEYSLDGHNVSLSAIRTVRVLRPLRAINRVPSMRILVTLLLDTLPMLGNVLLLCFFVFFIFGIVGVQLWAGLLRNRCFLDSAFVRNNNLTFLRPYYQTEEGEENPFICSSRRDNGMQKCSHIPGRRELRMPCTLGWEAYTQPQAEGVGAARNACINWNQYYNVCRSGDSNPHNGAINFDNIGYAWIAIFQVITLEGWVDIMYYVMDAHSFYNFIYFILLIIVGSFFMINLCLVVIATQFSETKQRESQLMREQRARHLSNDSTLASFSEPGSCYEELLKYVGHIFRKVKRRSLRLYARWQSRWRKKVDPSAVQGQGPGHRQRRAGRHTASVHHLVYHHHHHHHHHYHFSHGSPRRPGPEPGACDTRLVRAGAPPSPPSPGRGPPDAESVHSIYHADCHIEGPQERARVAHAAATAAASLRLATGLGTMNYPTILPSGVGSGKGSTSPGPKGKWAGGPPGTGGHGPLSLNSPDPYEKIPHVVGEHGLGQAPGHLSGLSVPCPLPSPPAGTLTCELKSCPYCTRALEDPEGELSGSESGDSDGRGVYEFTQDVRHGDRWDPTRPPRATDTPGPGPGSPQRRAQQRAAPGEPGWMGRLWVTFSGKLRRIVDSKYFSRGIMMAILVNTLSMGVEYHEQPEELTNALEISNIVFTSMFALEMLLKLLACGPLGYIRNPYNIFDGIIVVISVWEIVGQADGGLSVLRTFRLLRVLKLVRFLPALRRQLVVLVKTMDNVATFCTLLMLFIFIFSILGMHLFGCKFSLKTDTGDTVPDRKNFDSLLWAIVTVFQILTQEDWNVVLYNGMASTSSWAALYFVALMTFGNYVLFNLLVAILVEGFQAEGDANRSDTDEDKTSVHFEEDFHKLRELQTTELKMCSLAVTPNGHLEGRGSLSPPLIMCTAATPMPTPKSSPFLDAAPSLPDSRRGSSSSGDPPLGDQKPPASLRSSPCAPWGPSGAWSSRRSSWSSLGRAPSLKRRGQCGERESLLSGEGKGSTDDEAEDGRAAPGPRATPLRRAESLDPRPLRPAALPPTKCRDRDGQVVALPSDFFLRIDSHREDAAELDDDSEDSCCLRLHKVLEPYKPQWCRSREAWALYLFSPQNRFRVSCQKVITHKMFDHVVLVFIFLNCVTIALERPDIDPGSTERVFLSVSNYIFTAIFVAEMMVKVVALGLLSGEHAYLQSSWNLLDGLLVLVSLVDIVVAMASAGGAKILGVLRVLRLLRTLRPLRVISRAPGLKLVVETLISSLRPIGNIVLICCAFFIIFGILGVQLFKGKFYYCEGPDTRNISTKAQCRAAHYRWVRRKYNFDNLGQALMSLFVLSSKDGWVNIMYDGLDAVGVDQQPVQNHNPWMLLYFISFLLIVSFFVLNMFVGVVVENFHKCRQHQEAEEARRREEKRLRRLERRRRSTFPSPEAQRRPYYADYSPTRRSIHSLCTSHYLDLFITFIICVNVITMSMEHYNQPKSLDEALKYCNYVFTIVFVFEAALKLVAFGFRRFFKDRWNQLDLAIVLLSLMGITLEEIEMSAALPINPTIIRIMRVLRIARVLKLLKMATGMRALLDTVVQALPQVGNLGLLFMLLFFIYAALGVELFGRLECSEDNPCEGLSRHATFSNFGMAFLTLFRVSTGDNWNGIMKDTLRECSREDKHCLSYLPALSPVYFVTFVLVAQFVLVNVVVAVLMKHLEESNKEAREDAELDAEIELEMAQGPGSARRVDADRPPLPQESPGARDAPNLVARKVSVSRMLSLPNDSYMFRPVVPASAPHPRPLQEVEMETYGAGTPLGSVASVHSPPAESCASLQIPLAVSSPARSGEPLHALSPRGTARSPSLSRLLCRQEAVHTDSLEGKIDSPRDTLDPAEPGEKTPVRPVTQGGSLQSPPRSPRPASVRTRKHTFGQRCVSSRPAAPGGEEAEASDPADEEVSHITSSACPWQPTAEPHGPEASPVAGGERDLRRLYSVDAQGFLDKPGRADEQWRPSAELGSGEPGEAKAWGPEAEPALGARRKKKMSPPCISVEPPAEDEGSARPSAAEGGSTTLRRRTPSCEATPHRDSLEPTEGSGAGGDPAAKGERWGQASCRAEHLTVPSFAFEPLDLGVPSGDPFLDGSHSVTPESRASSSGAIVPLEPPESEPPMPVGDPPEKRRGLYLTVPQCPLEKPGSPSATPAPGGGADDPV", "experiment": "T-type calcium channel inhibitory activity, whole-cell patch-clamp with HEK293 cell", "type": "cell-based", "experimental": "as §1, §2"}, "[4]": {"molecular_target": "human Cav3.3 (Homo sapiens (Human), UniProt Q9P0X4)", "sequence (Q9P0X4 whole entry)": "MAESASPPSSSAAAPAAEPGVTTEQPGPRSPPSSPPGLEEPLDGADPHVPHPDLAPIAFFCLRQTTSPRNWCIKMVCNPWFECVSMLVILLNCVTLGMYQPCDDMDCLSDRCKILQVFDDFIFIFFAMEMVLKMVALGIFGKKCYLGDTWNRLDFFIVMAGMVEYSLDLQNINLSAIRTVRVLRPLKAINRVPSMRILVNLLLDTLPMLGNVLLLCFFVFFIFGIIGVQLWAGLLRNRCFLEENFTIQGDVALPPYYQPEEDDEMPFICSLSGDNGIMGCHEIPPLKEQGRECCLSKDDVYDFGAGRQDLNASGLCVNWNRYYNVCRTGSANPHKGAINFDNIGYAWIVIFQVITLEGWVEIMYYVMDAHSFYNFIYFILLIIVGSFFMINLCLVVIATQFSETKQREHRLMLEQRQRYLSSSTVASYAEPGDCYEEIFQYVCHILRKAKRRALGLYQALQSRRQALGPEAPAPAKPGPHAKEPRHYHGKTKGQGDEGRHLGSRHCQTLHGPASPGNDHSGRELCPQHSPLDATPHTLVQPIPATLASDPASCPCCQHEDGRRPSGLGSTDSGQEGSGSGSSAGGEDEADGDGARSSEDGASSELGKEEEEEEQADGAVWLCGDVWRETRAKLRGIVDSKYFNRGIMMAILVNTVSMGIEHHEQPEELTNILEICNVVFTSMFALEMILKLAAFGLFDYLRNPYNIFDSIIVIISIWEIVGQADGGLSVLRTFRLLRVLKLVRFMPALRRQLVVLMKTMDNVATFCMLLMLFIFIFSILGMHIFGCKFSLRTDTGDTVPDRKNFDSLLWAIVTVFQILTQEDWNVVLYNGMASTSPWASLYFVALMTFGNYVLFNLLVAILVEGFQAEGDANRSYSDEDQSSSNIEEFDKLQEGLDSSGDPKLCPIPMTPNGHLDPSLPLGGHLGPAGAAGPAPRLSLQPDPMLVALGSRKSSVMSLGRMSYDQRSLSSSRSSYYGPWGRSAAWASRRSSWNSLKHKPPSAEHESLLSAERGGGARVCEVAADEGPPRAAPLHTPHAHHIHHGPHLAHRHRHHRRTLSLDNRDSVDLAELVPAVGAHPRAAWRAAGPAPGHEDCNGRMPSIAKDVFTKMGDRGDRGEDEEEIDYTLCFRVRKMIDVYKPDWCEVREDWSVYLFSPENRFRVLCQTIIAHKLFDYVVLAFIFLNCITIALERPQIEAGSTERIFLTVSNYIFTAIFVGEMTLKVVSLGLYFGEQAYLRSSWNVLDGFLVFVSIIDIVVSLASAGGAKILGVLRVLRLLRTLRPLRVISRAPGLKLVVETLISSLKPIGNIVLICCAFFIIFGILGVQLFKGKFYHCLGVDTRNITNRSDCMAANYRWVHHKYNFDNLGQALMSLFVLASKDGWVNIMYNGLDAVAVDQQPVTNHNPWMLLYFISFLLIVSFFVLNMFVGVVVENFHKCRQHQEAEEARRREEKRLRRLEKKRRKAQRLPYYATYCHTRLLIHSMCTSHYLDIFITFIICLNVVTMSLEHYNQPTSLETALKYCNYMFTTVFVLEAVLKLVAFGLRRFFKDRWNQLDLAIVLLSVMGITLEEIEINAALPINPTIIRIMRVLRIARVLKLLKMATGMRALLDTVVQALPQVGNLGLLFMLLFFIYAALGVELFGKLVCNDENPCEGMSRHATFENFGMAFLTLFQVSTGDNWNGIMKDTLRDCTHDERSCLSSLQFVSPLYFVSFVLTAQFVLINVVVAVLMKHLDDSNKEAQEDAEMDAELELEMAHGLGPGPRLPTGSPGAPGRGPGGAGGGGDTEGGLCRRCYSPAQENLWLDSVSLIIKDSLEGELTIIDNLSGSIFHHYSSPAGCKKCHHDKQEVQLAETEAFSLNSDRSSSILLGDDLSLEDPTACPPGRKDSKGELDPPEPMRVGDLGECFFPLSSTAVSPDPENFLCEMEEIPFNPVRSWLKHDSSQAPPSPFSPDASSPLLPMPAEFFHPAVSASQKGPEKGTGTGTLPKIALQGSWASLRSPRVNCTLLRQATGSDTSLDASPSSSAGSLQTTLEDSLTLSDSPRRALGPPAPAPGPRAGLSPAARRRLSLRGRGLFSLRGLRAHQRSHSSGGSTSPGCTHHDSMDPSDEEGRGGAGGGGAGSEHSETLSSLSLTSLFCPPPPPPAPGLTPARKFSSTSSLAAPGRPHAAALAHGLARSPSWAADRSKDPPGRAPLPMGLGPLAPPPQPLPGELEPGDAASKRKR", "experiment": "T-type calcium channel inhibitory activity, whole-cell patch-clamp with HEK293 cell", "type": "cell-based", "experimental": "as §1, §2"}, "[5]": {"system": "unilateral lesion model of nigrostriatal dopamine neuron induced with 6-OHDA", "experiment": "Extending duration of levodopa-induced rotational behavior in 6-OHDA unilateral lesion model", "type": "in vivo, rat", "settings": "Examples 10 or 30 mg/kg oral; rasagiline 0.6 mg/kg; with levodopa 5 mg/kg i.p."}, "[6]": {"molecular_target": "Rat striatum MAOB (Rattus norvegicus (Rat), UniProt P19643)", "sequence (P19643 whole entry)": "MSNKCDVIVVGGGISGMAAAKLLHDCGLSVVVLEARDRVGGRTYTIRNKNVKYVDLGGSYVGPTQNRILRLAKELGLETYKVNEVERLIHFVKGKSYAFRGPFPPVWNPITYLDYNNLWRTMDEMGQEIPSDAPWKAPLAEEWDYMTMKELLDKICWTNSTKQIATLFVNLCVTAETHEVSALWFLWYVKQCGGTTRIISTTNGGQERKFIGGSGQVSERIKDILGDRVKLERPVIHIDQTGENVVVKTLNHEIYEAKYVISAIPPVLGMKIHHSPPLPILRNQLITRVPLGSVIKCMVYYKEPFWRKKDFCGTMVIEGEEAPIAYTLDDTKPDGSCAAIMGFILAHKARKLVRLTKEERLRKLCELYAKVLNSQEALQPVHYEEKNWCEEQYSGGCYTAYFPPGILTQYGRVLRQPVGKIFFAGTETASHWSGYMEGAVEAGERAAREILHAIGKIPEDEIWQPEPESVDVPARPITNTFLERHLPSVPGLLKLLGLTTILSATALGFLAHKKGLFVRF", "experiment": "Activity for inhibiting monoamine oxidase B (MAOB)", "type": "biochemical", "settings": "[14C] β-PEA substrate; read-out: Rat striatum MAOB IC50", "experimental": "MAOB is an enzyme involved in oxidative de-amino acid reaction of an endogenous monoamine neurotransmitter such as dopamine. […] The effect of the present compounds for inhibiting MAOB in rat striatum and simian striatum was tested.\nMitochondria⋅synaptosome fraction containing MAOB was prepared according to the following procedure. To striata of male Slc: Wistar rat (Japan SLC, Inc.) or male cynomolgus monkey (HAMRI CO., LTD.) was added 0.32 mol/L aqueous sucrose by 10 mL per 1 gram as wet weight of the tissue, and the mixture was homogenized. The homogenate was centrifuged at 4° C. at 1,000 g for 10 minutes, and the obtained supernatant was centrifuged again at 4° C. at 17,200 g for 20 minutes. To the obtained precipitate was added a prepared buffer solution (10 mmol/L Tris-HCl buffer solution (pH 7.4), 0.25 mol/L aqueous sucrose, 0.5 mmol/L EDTA-2K) by 10 mL per 1 gram as wet weight of the original tissue, and the mixture was centrifuged again at 4° C. at 17,200 g for 20 minutes. To the obtained precipitate was added the prepared buffer solution by 40 mL per 1 gram as wet weight of the original tissue. The mixture was suspended to be used as an enzyme homogenate solution.\nAs a substance to be degraded by MAOB, ^14C-labeled β-phenylethylamine ([^14C] β-PEA) was used. [^14C] β-PEA and the present compound solution diluted to each concentration were incubated with the enzyme homogenate solution at 37° C. for a given period, and then the reaction was stopped by adding 3 mol/L cold HCl thereto. The reaction product was extracted with a mixture of water-saturated toluene and ethyl acetate (1:1). The supernatant organic layer was separated, a liquid scintillation cocktail (ACSII, GE Healthcare) was added to the separated organic layer, and the radioactivity was measured with a liquid scintillation counter (TRI-CARB 3100TR, Packard). The IC50 value of each compound was determined based on two parameter logistic model with the inhibitory data of each concentration, said data were obtained from plural trials."}, "[7]": {"molecular_target": "human CA-II (Homo sapiens (Human), UniProt P00918)", "experiment": "Activity for inhibiting carbonic anhydrase (CA)", "type": "biochemical", "settings": "4-nitrophenyl acetate substrate", "experimental": "CA is a zinc metalloenzyme family which catalyzes reversible hydration between carbon dioxide, and bicarbonate and proton.\nAs a substance for decomposition by CA-II, 4-nitrophenyl acetate was used herein. 4-Nitrophenyl acetate is […] with CA-II to produce 4-nitrophenol. […] To the diluted solution were added […] (final concentration: 5 mmol/L) and the present compound of each concentration, and the mixture was incubated at 37° C. under shading for 30 minutes. […] The IC50 of the compound was obtained through the two-parameter logistic model with the inhibitory rate data in each concentration which was obtained from plural trials."}, "[8]": {"system": "mouse elevated plus maze", "experiment": "Anxiolytic-like action, mouse elevated plus maze", "type": "in vivo", "settings": "Example 13 at 10 mg/kg or more oral; diazepam 3 mg/kg oral", "experimental": "In Parkinson's disease, psychiatric symptom (e.g. depression, anxiety) is known as one of its non-motor symptoms. The anxiolytic-like action of the present invention was evaluated with mouse elevated plus maze. The present test is broadly used as a method for evaluating the anxiolytic-like action of agents.\nIn the present test, male Crl: CD1 (ICR) mice (CHARLES RIVER LABORATORIES JAPAN, INC.) were used. One hour before the test was started, the solvent, the compound of Example 13 (3 mg/kg, 10 mg/kg, 30 mg/kg, or 100 mg/kg), or diazepam (3 mg/kg) which is a positive control was orally administered to the mouse. The mouse was put into a center platform in which the illuminance was adjusted to 80-100 Lux level. The head of the mouse was set toward the closed arm, and then the test was started. The mouse was allowed to explore freely for 5 minutes. When ⅓ of the mouse's body entered the arm, the behavior was counted as arm entry. And, the time spent in the open arm was also measured with a stopwatch. The ratio of the count of the open arm entry per the count of the all arm entry, and the ratio of the time spent in the open arm per the total exploration time (5 minutes) were calculated. […] Thus, the ratio of the count of the open arm entry per the count of the all arm entry, and the ratio of the time spent in the open arm per the total exploration time tend to be small values. When these ratios in the drug administration group are higher than those of the solvent administration group, it can be judged that the drug has anxiolytic-like action."}, "[9]": {"system": "reserpine-induced Parkinson's disease model mouse", "experiment": "Potentiating effect of levodopa-induced hyperactivity in reserpine-induced Parkinson's disease model mouse", "type": "in vivo", "settings": "Examples 12.5 or 25 mg/kg oral; rasagiline 3 or 10 mg/kg; with levodopa 200 mg/kg i.p.", "experimental": "Dopamine-depleted mice due to reserpine treatment are model mice of akinesia symptoms in Parkinson's disease, said symptoms are relieved with levodopa (L-DOPA). The effect of the present compounds for potentiating the levodopa's effect was tested.\nIn the present test, male Crl: CD1 (ICR) mice (CHARLES RIVER LABORATORIES JAPAN, INC.) were used. 20-24 hours before starting the movement measurement, reserpine (3 mg/kg) was intraperitoneally administered to the mouse. One hour before starting the movement measurement, the present compound (12-.5 mg/kg or 25 mg/kg of. Examples 1, 2, 3, 4, and 5) was orally administered to the mouse. Shortly before starting the movement measurement, levodopa (200 mg/kg) with benserazide whose amount was ¼ of levodopa in free form was intraperitoneally administered to the mouse. The movement measurement was carried out for 90 minutes, and each total movement was compared."}, "[10]": {"system": "levodopa-induced dyskinesia in 6-OHDA unilateral lesion model", "experiment": "Effect for inhibiting levodopa-induced dyskinesia", "type": "in vivo, rat", "settings": "Examples 30 or 100 mg/kg, rasagiline 0.2 or 0.6 mg/kg, daily for two weeks", "source_text": "A unilateral lesion model of nigrostriatal dopamine neuron induced with 6-hydroxydopamine (6-OHDA) is broadly used for evaluating the drug efficacy for treating Parkinson's disease, as mentioned in Test 2. In addition, it is known that dyskinesia is developed when the present model receives repetitive administration of levodopa, which is similar to the phenomenon that patients of Parkinson's disease who have received long-term administration of levodopa develop dyskinesia. With the present model, the effect of the present compound on the dyskinesia induced by repetitive administration of levodopa was evaluated. As shown in Test 2, a unilateral lesion model of nigrostriatal dopamine neuron was prepared. One day before starting the repetitive administration of levodopa, levodopa methyl ester hydrochloride (5.86 mg/kg) containing benserazide hydrochloride ([…]) (whose ratio was 4:1 in terms of free form) was intraperitoneally administered to the model, and the rotational behavior of the model was observed from 20 minutes to 140 minutes after the administration. The models were classified considering three factors of the total rotation number (20-140 minutes after the administration), the later term of the rotation (120-140 minutes after the administration), and the rotational duration, so that the dispersion of each group could be equal. Two days after the classification, the repetitive administration of levodopa methyl ester hydrochloride (6 mg/kg) and benserazide hydrochloride (12 mg/kg) once a day for two weeks was started. […] The evaluation of dyskinesia was done after one week and two weeks of the repetitive administration. […]"}}}
{"smiles": "CC(C)NCC(O)COc1cccc2ccccc12", "note": "(stereo not drawn) [β-Propranolol, β-propranolol, reference compound]", "values": [{"measurement": "harmaline-induced tremor intensity", "setting": "[1]", "value": "significantly inhibited harmaline-induced tremor"}]}
{"smiles": "C[C@@H](c1noc2ccccc12)S(N)(=O)=O", "note": "[Example 14, (1S)-1-(1,2-benzoxazol-3-yl)ethane-1-sulfonamide]", "values": [{"measurement": "inhibition at 600 µM", "setting": "[2]; HEK293, 600 μmol/L, read-out: Cav3.1 % inhibitory rate", "value": 49.6, "unit": "%"}, {"measurement": "IC50", "setting": "[2]; dose-reactive test, read-out: Cav3.1 IC50 (parenthesized)", "value": 549, "unit": "µM"}, {"measurement": "inhibition at 600 µM", "setting": "[3]; HEK293, 600 μmol/L, read-out: Cav3.2 % inhibitory rate", "value": 33.8, "unit": "%"}, {"measurement": "IC50", "setting": "[3]; dose-reactive test, read-out: Cav3.2 IC50 (parenthesized)", "value": 839, "unit": "µM"}, {"measurement": "inhibition at 600 µM", "setting": "[4]; HEK293, 600 μmol/L, read-out: Cav3.3 % inhibitory rate", "value": 31.8, "unit": "%"}, {"measurement": "IC50", "setting": "[4]; dose-reactive test, read-out: Cav3.3 IC50 (parenthesized)", "value": 888, "unit": "µM"}, {"measurement": "rotational number in the late phase (100-120 minutes)", "setting": "[5]", "value": "significantly increased the rotational number in the late phase"}, {"measurement": "IC50", "setting": "[6]", "value": "> 600", "unit": "µM"}, {"measurement": "harmaline-induced tremor intensity", "setting": "[1]", "value": "inhibited harmaline-induced tremor"}, {"measurement": "IC50", "setting": "[7]", "value": 3.5, "unit": "µM"}]}
{"smiles": "CN1C(=O)CN=C(c2ccccc2)c2cc(Cl)ccc21", "note": "[Diazepam, diazepam, reference compound]", "values": [{"measurement": "count of the open arm entry", "setting": "[8]", "value": "increase significantly"}, {"measurement": "time spent in the open arm", "setting": "[8]", "value": "increase significantly"}]}
{"smiles": "C#CCN[C@@H]1CCc2ccccc21", "note": "[rasagiline, reference compound]", "values": [{"measurement": "levodopa-induced hyperactivity (total movement, 90 minutes)", "setting": "[9]", "value": "a tendency to increase the movement, but the increase had no statistically-significant difference"}, {"measurement": "rotational number in the late phase (100-120 minutes)", "setting": "[5]", "value": "significantly increased the rotational number in the late phase"}, {"measurement": "dyskinesia induced by repetitive administration of levodopa (AIMS score)", "setting": "[10]", "value": "significantly got worse"}]}
